According to ChEMBL document CHEMBL5728559, “Alkylphenyl compounds” (2021):

Tests used:
[1] = target: Sphingosine 1-phosphate receptor 1 (Homo sapiens, UniProt P21453); assay: S1P1 Binding Assay: Membranes were prepared from CHO cells expressing human S1P1. Cells pellets (1×10^9 cells/pellet) were suspended in buffer containing 20 mM HEPES (4-(2-hydroxyethyl)-1-piperazineethanesulfonic acid), pH 7.5, 50 mM NaCl, 2 mM EDTA (Ethylenediamine tetraacetic acid) and Protease Inhibitor cocktail (Roche), and disrupted on ice using the Polytron homogenizer. The homogenate was centrifuged at 20,000 rpm (48,000 g) and the supernatant was discarded. The membrane pellets were resuspended in buffer containing 50 mM HEPES, pH 7.5, 100 mM NaCl, 1 mM MgCl2, 2 mM EDTA and stored in aliquots at −80° C. after protein concentration determination.Membranes (2 μg/well) and 0.03 nM final concentration of 33P-S1P ligand (1 mCi/ml, Perkin Elmer or American Radiolabeled Chemicals) diluted in assay buffer (50 mM HEPES, pH7.4, 5 mM MgCl2, 1 mM CaCl2, 0.5% fatty acid free BSA(bovine serum albumin), 1 mM NaF) were added to the compound plates (384 Falcon v-bottom plate (0.5 μl/well in a 11 point, 3-fold dilution). Binding was performed for 45 minutes at room temperature, terminated by collecting the membranes onto 384-well Millipore FB filter plates, and radioactivity was measured by TOPCOUNT®. The competition data of the test compounds over a range of concentrations was plotted as percentage inhibition of radioligand specific binding. […]
[2] = target: Sphingosine 1-phosphate receptor 3 (Homo sapiens, UniProt Q99500); assay: Receptor [35S] GTPgammaS Binding Assays: Compounds were loaded in a 384 Falcon v-bottom plate (0.5 μL/well in a 11 point, 3-fold dilution). Membranes prepared from S1P1/CHO cells or EDG3-Gal5-bla HEK293T cells (EDG3 equivalent S1P3) were added to the compound plate (40 μL/well, final protein 3 μg/well) with MULTIDROP®. [35S]GTP (1250 Ci/mmol, Perkin Elmer) was diluted in assay buffer: 20 mM HEPES, pH7.5, 10 mM MgCl2, 150 mM NaCl, 1 mM EGTA(ethylene glycol tetraacetic acid), 1 mM DTT (dithiothreitol), 10 μM GDP, 0.1% fatty acid free BSA, and 10 μg/ml Saponin to 0.4 nM. 40 μL of the [35S] GTP solution was added to the compound plate with a final concentration of 0.2 nM. The reaction was kept at room temperature for 45 min. At the end of incubation, all the mixtures in the compound plate were transferred to Millipore 384-well FB filter plates via the VELOCITY11® Vprep liquid handler. The filter plate was washed with water 4 times by using the manifold Embla plate washer and dried at 60° C. for 45 min. MicroScint 20 scintillation fluid (30 μL) was added to each well for counting on the Packard TOPCOUNT®. EC50 is defined as the agonist concentration that corresponds to 50% of the Ymax (maximal response) obtained for each individual compound tested.A smaller value for GTPγS S1P1 EC50 value indicated greater activity for the compound in the GTPγS S1P1 binding assay. […]
Sphingosine 1-phosphate receptor 3, sequence (Q99500 whole entry): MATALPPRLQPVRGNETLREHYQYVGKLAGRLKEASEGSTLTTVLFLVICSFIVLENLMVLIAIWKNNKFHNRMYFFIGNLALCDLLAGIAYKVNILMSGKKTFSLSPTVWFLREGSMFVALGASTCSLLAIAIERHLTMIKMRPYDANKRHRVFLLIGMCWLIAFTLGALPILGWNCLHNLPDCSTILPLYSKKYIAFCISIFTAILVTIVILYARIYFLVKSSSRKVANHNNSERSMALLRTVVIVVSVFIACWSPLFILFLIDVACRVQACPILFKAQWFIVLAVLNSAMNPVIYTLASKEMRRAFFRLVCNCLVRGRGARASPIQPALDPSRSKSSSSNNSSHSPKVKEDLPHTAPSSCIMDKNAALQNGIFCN

Sphingosine 1-phosphate receptor 1, sequence (P21453 whole entry): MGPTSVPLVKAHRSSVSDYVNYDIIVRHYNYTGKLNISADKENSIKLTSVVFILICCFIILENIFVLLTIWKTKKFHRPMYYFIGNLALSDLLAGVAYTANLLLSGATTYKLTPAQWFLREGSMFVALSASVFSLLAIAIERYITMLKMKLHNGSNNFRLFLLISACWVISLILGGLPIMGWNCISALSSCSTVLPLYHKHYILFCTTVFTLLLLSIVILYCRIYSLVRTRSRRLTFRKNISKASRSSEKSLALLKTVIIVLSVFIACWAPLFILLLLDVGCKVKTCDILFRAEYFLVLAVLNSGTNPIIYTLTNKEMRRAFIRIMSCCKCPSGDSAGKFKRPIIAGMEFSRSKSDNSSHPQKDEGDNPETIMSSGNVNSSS

## CCCCCCCCc1cc(C)c(N2CCC(N)(COP(=O)(O)O)C2=O)c(C)c1 (configuration not stated)
[1]
  EC50: 14.4 µM
[2]
  EC50: > 60 µM
